Structures are written as SMILES.

Sequence of Dephosphorylated BTK (Q06187 whole entry): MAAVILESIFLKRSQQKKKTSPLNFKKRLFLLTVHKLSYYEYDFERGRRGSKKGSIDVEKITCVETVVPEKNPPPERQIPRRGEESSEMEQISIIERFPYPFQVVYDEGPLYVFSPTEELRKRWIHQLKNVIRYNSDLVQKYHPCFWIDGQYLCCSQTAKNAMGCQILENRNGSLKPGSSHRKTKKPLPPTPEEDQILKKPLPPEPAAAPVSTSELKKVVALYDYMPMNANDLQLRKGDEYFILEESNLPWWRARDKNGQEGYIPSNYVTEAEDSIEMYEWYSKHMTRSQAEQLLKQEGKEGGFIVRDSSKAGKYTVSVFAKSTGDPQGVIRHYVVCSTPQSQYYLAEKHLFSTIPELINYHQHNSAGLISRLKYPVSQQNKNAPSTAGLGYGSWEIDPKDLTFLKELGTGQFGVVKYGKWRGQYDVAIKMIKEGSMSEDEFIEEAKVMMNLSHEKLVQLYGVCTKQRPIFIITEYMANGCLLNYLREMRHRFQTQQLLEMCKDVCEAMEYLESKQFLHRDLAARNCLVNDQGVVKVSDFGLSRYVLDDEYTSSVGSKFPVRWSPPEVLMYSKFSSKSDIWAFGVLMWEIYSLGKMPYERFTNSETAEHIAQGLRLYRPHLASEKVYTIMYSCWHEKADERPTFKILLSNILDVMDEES

This test concerns the target Dephosphorylated BTK (Homo sapiens, UniProt Q06187). Put plainly: Test of activity inhibition against dephosphorylated BTK (mobility shift assay).
Turning to `CC(C)(C)c1ccc(C(=O)Nc2cccc(-c3nc(N)nc(Nc4ccc(Cn5cncn5)cc4)n3)c2CO)cc1` [Example 164, N-{3-[4-({4-[(1H-1,2,4-Triazol-1-yl)methyl]phenyl}amino)-6-amino-1,3,5-triazin-2-yl]-2-(hydroxymethyl)phe-nyl}-4-(tert-butyl) benzamide], the IC50 (in general, the concentration that inhibits the measured activity by half) was determined as 0.5 nM. On to `CC(C)(F)c1ccc(C(=O)Nc2cccc(-c3nc(N)nc(Nc4ccc(N5CCOCC5)cc4)n3)c2CO)cc1` [Example 209, N-(3-{4-Amino-6-[(4-morpholinophenyl)amino]-1,3,5-triazin-2-yl}-2-(hydroxymethyl)phe-nyl)-4-(2-fluoropropan-2-yl)benzamide], for which the IC50 came out at 1.4 nM. In the case of `Cc1c(NC(=O)c2ccc(C(C)(C)C)cc2)cccc1-c1nc(N)nc(Nc2ccc(N3CCNCC3)cc2)n1` [Example 88, N-[3-(4-Amino-6-{[4-(piperazin-1-yl)phenyl]amino}-1,3,5-triazin-2-yl)-2-methylphenyl]-4-(tert-butyl)benza-mide] it was 1.8 nM; in that of `COC(=O)c1cccc(Nc2nc(N)nc(-c3cccc(NC(=O)c4ccc(C(C)(C)C)cc4)c3CO)n2)c1` [Example 142, Methyl 3-[(4-amino-6-{3-[4-(tert-butyl)benzamido]-2-(hydroxymethyl)phe-nyl}-1,3,5-triazin-2-yl)amino]benzoate], 3.1 nM. The same measure for `Cc1c(NC(=O)c2ccc(C(C)(C)C)cc2)cccc1-c1nc(N)nc(Nc2ccc(N3CCC(O)CC3)cc2)n1` [Example 87, N-[3-(4-Amino-6-{[4-(4-hydroxypiperidin-1-yl)phenyl]amino}-1,3,5-triazin-2-yl)-2-meth-ylphenyl]-4-(tert-butyl)benzamide]: 1.4 nM; for `Nc1nc(Nc2cc3n(c2)CCNC3=O)nc(-c2cccc(N3CCc4cc(C5CC5)cc(F)c4C3=O)c2CO)n1` [Example 267, 2-(3-{4-Amino-6-[(1-oxo-1,2,3,4-tetrahydro-pyrrolo[1,2-a]pyrazin-7-yl)amino]-1,3,5-tri-azin-2-yl}-2-(hydroxy-methyl)phenyl)-6-cyclo-propyl-8-fluoro-3,4-dihydroisoquinolin-1 (2H)-one]: 1.5 nM; for `COCCN(CCOC)Cc1ccc(Nc2nc(N)nc(-c3cccc(NC(=O)c4cc5c(s4)CCCC5)c3CO)n2)cc1` [Example 129, N-(3-{4-Amino-6-[(4-{[bis (2-methoxyethyl)a-mino]methyl}phenyl)ami-no]-1,3,5-triazin-2-yl}-2-(hydroxymethyl)phenyl)-4,5,6,7-tetra-hydrobenzo[b]thiophene-2-carboxamide]: 0.6 nM.

As for `CN1CCN(C)C(c2ccc(Nc3nc(N)nc(-c4cccc(N5CCc6cc(C7CC7)cc(F)c6C5=O)c4CO)n3)cc2)C1=O` (centres unmarked) [Example 47, 2-[3-(5-Amino-6-{[4-(1,4-dimethyl-3-oxopipera-zin-2-yl)phenyl]ami-no}-1,3,5-triazin-2-yl)-2-(hydroxymethyl)phenyl]-6-cyclopropyl-8-fluoro-3,4-dihydro-isoquinolin-1(2H)-one], the IC50 is 1.6 nM.

Turning to `CC(C)n1ccc(Nc2nc(N)nc(-c3cccc(N4CCc5cc(C6CC6)cc(F)c5C4=O)c3CO)n2)c1` [Example 229, 2-(3-{4-Amino-6-[(1-iso-propyl-1H-pyrrol-3-yl)amino]-1,3,5-triazin-2-yl}-2-(hydroxymeth-yl)phenyl)-6-cyclopro-pyl-8-fluoro-3,4-di-hydroisoquinolin-1(2H)-one], the IC50 stood at 2.5 nM. `CN1CCn2cc(Nc3nc(N)nc(-c4cccc(N5CCc6cc(C7CC7)cc(F)c6C5=O)c4CO)n3)cc2C1=O` [Example 268, 2-(3-{4-Amino-6-[(2-meth-yl-1-oxo-1,2,3,4-tetra-hydropyrrolo[1,2-a]pyrazin-7-yl)amino]-1,3,5-triazin-2-yl}-2-(hydroxymethyl)phe-nyl)-6-cyclopropyl-8-fluoro-3,4-dihydroisoquinolin-1(2H)-one]: the IC50 is 1.2 nM. In the case of `Nc1nc(Nc2ccc(N3CCOCC3)cc2)nc(-c2cccc(NC(=O)c3ccc(C(F)(F)F)cc3)c2CO)n1` [Example 168, N-(3-{4-Amino-6-[(4-morpholinophenyl)amino]-1,3,5-triazin-2-yl}-2-(hydroxymethyl)phe-nyl)-4-(trifluorometh-yl)benzamide] it was 17.6 nM; in that of `CNC(=O)c1cc(Nc2nc(N)nc(-c3cccc(N4CCc5cc(C6CC6)cc(F)c5C4=O)c3CO)n2)cn1C` [Example 232, 4-({4-Amino-6-[3-(6-cyclo-propyl-8-fluoro-1-oxo-3,4-dihydroisoquinolin-2(1H)-yl)-2-(hy-droxymethyl)phenyl]-1,3,5-triazin-2-yl}ami-no)-N,1-dimethyl-1H-pyrrole-2-carboxamide], 0.7 nM; in that of `COc1cc(Nc2nc(N)nc(-c3cccc(NC(=O)c4ccc(C(C)(C)C)cc4)c3CO)n2)cc(OC)c1OCCCO` [Example 188, N-[3-(4-Amino-6-{[4-(3-hyroxypropoxy)-3,5-dimethoxyphenyl]ami-no}-1,3,5-triazin-2-yl)-2-(hydroxymethyl)phe-nyl]-4-(tert-butyl) benzamide], 0.4 nM.

As for `Cn1cc(Nc2nc(N)nc(-c3cccc(N4CCc5cc(C6CC6)cc(F)c5C4=O)c3CO)n2)cc1C(N)=O` [Example 251, 4-({4-Amino-6-[3-(6-cyclo-propyl-8-fluoro-1-oxo-3,4-dihydroisoquino-lin-2(1H)-yl)-2-(hydroxy-methyl)phenyl]-1,3,5-triazin-2-yl}ami-no)-1-methyl-1H-pyr-role-2-carboxamide], the IC50 was determined as 0.4 nM. In the case of `CC(C)(C)c1ccc(C(=O)Nc2cccc(-c3nc(N)nc(Nc4cccc(CN5CCOCC5)c4)n3)c2CO)cc1` [Example 163, N-[3-(4-Amino-6-{[3-(morpholinomethyl)phe-nyl]amino}-1,3,5-triazin-2-yl)-2-(hydroxymeth-yl)phenyl]-4-(tert-butyl)benzamide], the IC50 was determined as 1 nM. As to `Nc1nc(Nc2ccn(CC3CCOCC3)c2)nc(-c2cccc(N3CCc4cc(C5CC5)cc(F)c4C3=O)c2CO)n1` [Example 254, 2-{3-[4-Amino-6-({1-[(tetra-hydro-2H-pyran-4-yl)methyl]-1H-pyrrol-3-yl}amino)-1,3,5-tri-azin-2-yl]-2-(hydroxy-methyl)phenyl}-6-cyclo-propyl-8-fluoro-3,4-dihydroisoquinolin-1(2H)-one], the concentration for half-maximal inhibition (IC50) amounted to 1.4 nM.

On to `CC(C)(C)c1ccc(C(=O)Nc2cccc(-c3nc(N)nc(Nc4ccc(N5CCS(=O)(=O)CC5)cc4)n3)c2CO)cc1` [Example 124, N-[3-(4-Amino-6-{[4-(1,1-dioxidothiomorpho-lino)phenyl]amino}-1,3,5-triazin-2-yl)-2-(hy-droxymethyl)phenyl]-4-(tert-butyl)benzamide], for which the IC50 worked out at 0.5 nM. The same measure for `Nc1nc(Nc2ccc(N3CCC(O)CC3)cc2)nc(-c2cccc(NC(=O)c3cc4c(s3)CCCC4)c2CO)n1` [Example 128, N-[3-(4-Amino-6-{[4-(4-hydroxypiperidin-1-yl)phenyl]amino}-1,3,5-triazin-2-yl)-2-(hy-droxymethyl)phenyl]-4,5,6,7-tetrahydrobenzo [b]thiophene-2-carbox-amide]: 0.6 nM; for `CS(=O)(=O)n1cc(Nc2nc(N)nc(-c3cccc(N4CCc5cc(C6CC6)cc(F)c5C4=O)c3CO)n2)cn1` [Example 233, 2-[3-(4-Amino-6-{[1-(meth-ylsulfonyl)-1H-py-razol-4-yl]amino}-1,3,- 5-triazin-2-yl)-2-(hy-droxymethyl)phenyl]-6-cyclopropyl-8-fluoro-3,4-dihydroisoquino-lin-1(2H)-one]: 4.2 nM; for `Nc1nc(Nc2ccc(OCCCO)cc2)nc(-c2cccc(N3CCc4cc(C5CC5)cc(F)c4C3=O)c2CO)n1` [Example 197, 2-[3-(4-Amino-6-{[4-(3-hydroxypropoxy)phe-nyl]amino}-1,3,5-tri-azin-2-yl)-2-(hydroxymeth-yl)phenyl]-6-cyclo-propyl-8-fluoro-3,4-di-hydroisoquinolin-1(2H)-one]: 2.4 nM. The same measure for `CCN(CC)CCOc1ccc(Nc2nc(N)nc(-c3cccc(NC(=O)c4ccc(C(C)(C)C)cc4)c3CO)n2)cc1` [Example 159, N-{3-[4-Amino-6-({4-[2-(diethylamino)ethoxy]phenyl}amino)-1,3,5-triazin-2-yl]-2-(hy-droxymethyl)phenyl}-4-(tert-butyl)benzamide]: 5.9 nM; for `CC(C)(C)c1ccc(C(=O)Nc2cccc(-c3nc(N)nc(Nc4ccc(CC#N)cc4)n3)c2CO)cc1` [Example 148, N-[3-(4-Amino-6-{[4-(cyano-methyl)phenyl]ami-no}-1,3,5-triazin-2-yl)-2-(hydroxymethyl)phenyl]-4-(tert-butyl) benzamide]: 0.8 nM; for `CC(C)(C)c1ccc(C(=O)Nc2cccc(-c3nc(N)nc(Nc4cccc(Cn5cncn5)c4)n3)c2CO)cc1` [Example 162, N-{3-[4-({3-[(1H-1,2,4-Triazol-1-yl)methyl]phenyl}amino)-6-amino-1,3,5-triazin-2-yl]-2-(hydroxymethyl)phe-nyl}-4-(tert-butyl) benzamide]: 0.5 nM.

Turning to `CN(CCO)c1ccc(Nc2nc(N)nc(-c3cccc(N4CCc5cc(C6CC6)cc(F)c5C4=O)c3CO)n2)cc1` [Example 246, 2-{3-[4-Amino-6-({4-[(2-hydroxyethyl)(meth-yl)amino]phenyl}amino)-1,3,5-triazin-2-yl]-2-(hydroxymethyl)phe-nyl}-6-cyclopropyl-8-fluoro-3,4-dihydroiso-quinolin-1(2H)-one], the IC50 was 2.7 nM. The same measure for `COCCn1cc(Nc2nc(N)nc(-c3cccc(N4CCc5cc(C6CC6)cc(F)c5C4=O)c3CO)n2)cn1` [Example 212, 2-[3-(4-Amino-6-{[1-(2-methoxyethyl)-1H-py-razol-4-yl]amino}-1,3,5-triazin-2-yl)-2-(hy-droxymethyl)phenyl]-6-cyclopropyl-8-fluoro-3,4-dihydroisoquinolin-1(2H)-one]: 0.9 nM. In the case of `Nc1nc(Nc2ccc(N3CCCC(O)C3)cc2)nc(-c2cccc(N3CCc4cc(C5CC5)cc(F)c4C3=O)c2CO)n1` (centres unmarked) [Example 53, 2-[3-(4-Amino-6-{[4-(3-hydroxypiperidin-1-yl)phenyl]amino}-1,3,5-triazin-2-yl)-2-(hy-droxymethyl)phenyl]-6-cyclopropyl-8-fluoro-3,4-dihydroisoquinolin-1(2H)-one] it was 1.8 nM.

These data come from US20150011751A1, “NOVEL TRIAZINE DERIVATIVE” (CARNA BIOSCIENCES, INC., priority 2012, published 2015).
